Measured values as given in patent publication US9375459B2, “Cyclic peptides with an anti-neoplasic and anti-angiogenic activity” (priority 2011, dated 2016).
Entries after “also recorded” stand apart in the source; their conditions may differ. Where a SMILES comes first, the peptide text is derived from it.

Tested on: human tumor cells
Assay: Cytotoxic activity screening of peptide library on human tumor cell lines, SRB method
Format: cell-based
Conditions: SRB method; cytotoxic = dose-dependent 50% inhibition of proliferation, GI50 below 100 μM in at least one cell line
Protocol: Negative control cells were cultured on a volume of vehicle equal to that of the experimental samples. An “x-y” curve (dose-response) was established with the percent of surviving cells, compared in respect to the negative control cells, and the following parameters were estimated: 50% growth inhibition (GI50); Total growth inhibition (TGI); and the lethal concentration 50 (LC50), that is the concentration causing the 50% of cell death (Boyd M R, Paull K D, and Rubinstein L R (1992) “Data display and analysis strategies for the NCI Disease Oriented In-Vitro Antitumor Drug Screen, in Cytotoxic Anticancer Drugs: Models and Concept for Drug Discovery and Development” (Baleriote F A, Corbett T H and Baker L H eds) pp 11-34, Kluwer Academia Publishers, Boston).
Were considered as cytotoxic peptides all those peptides being able of inhibiting 50% of the cellular proliferation, in a dose-dependent manner, and showing GI50 values below 100 μM, at least in one of the cell lines studied. The human tumor cell lines used were: HEp-2 (larynx carcinoma), A549 (lung epithelial adenocarcinoma), M14 (melanoma), Colo 205 (colon adenocarcinoma), Ls174T (colon adenocarcinoma), LnCAP (prostate carcinoma), PC-3 (prostate carcinoma) and H 125 (non-small cell lung adenocarcinoma). Represented are primary sequences for the designed peptides, the code used for its generation and their respective cytotoxic capacity on human tumor cells.

Structure (SMILES) | Cytotoxic activity in vitro
CC[C@H](C)[C@H](NC(=O)[C@H](C)NC(=O)[C@H](CC(N)=O)NC(=O)[C@H](CCC(=O)O)NC(=O)[C@@H](NC(=O)[C@@H](NC(=O)[C@@H](NC(=O)CNC(=O)[C@H](C)NC(=O)[C@H](C)NC(=O)[C@@H](NC(=O)[C@H](CO)NC(=O)[C@@H](NC(=O)[C@H](CC(N)=O)NC(=O)CNC(=O)[C@H](CCCCN)NC(=O)[C@H](CC(C)C)NC(=O)CN)C(C)C)[C@@H](C)CC)C(C)C)[C@@H](C)O)[C@@H](C)CC)C(=O)NCC(=O)NCC(N)=O [Peptide A07P44] (H-GLKGNVSIAAGVTIENAIGG-NH2) | − (symbol − indicates its absence, following criteria established in Example 2)
CC(C)C[C@H](N)C(=O)N[C@@H](Cc1ccc(O)cc1)C(=O)NCC(=O)N[C@@H](C)C(=O)N[C@@H](CC(N)=O)C(=O)N1CCC[C@H]1C(=O)N[C@@H](CO)C(=O)N[C@H](C(=O)N[C@@H](CCCNC(=N)N)C(=O)N[C@H](C(=O)NCC(=O)N[C@@H](CC(=O)O)C(=O)N[C@H](C(=O)N[C@H](C(=O)N[C@@H](Cc1ccc(O)cc1)C(=O)NCC(=O)N[C@@H](Cc1ccccc1)C(=O)N[C@@H](CC(N)=O)C(=O)N[C@@H](CO)C(=O)N[C@@H](CC(N)=O)C(N)=O)C(C)C)[C@@H](C)O)[C@@H](C)O)[C@@H](C)O [Peptide E07P06] (H-LYGANPSTRTGDTVYGFNSN-NH2) | − (symbol − indicates its absence, following criteria established in Example 2)
CC[C@H](C)[C@H](NC(=O)[C@H](C)NC(=O)[C@H](CC(N)=O)NC(=O)[C@H](CCC(=O)O)NC(=O)[C@@H](NC(=O)[C@@H](NC(=O)[C@@H](NC(=O)CN)C(C)C)[C@@H](C)O)[C@@H](C)CC)C(=O)NCC(=O)NCC(=O)N[C@@H](CO)C(=O)NCC(=O)N[C@@H](CC(N)=O)C(=O)N[C@@H](CC(=O)O)C(=O)N[C@H](C(=O)N[C@H](C(=O)N[C@H](C(=O)NCC(=O)N[C@@H](CC(N)=O)C(=O)N[C@@H](C)C(N)=O)C(C)C)[C@@H](C)CC)C(C)C [Peptide A07P45] (H-GVTIENAIGGSGNDVIVGNA-NH2) | − (symbol − indicates its absence, following criteria established in Example 2)
CC(C)C[C@H](NC(=O)[C@H](C)NC(=O)[C@H](CCC(=O)O)NC(=O)CNC(=O)[C@H](C)NC(=O)[C@@H](NC(=O)CN)[C@@H](C)O)C(=O)N[C@@H](CC(C)C)C(=O)N[C@@H](CO)C(=O)N[C@@H](Cc1ccc(O)cc1)C(=O)N[C@@H](CC(N)=O)C(=O)N[C@@H](C)C(=O)N[C@@H](CO)C(=O)N[C@@H](CO)C(=O)N[C@@H](CC(N)=O)C(=O)N[C@H](C(=O)N[C@H](C(=O)N[C@@H](CC(=O)O)C(=O)N[C@@H](CC(C)C)C(=O)N[C@@H](CO)C(N)=O)[C@@H](C)O)C(C)C [Peptide O07P108] (H-GTAGEALLSYNASSNVTDLS-NH2) | − (symbol − indicates its absence, following criteria established in Example 2)
CC[C@H](C)[C@H](NC(=O)[C@@H](NC(=O)[C@H](CC(=O)O)NC(=O)[C@H](CC(N)=O)NC(=O)CNC(=O)[C@@H](N)CO)C(C)C)C(=O)N[C@H](C(=O)NCC(=O)N[C@@H](CC(N)=O)C(=O)N[C@@H](C)C(=O)N[C@@H](C)C(=O)N[C@@H](CC(N)=O)C(=O)N[C@@H](CC(N)=O)C(=O)N[C@H](C(=O)N[C@@H](CC(C)C)C(=O)N[C@@H](CCCCN)C(=O)NCC(=O)NCC(=O)N[C@@H](C)C(=O)NCC(N)=O)C(C)C)C(C)C [Peptide Y07P48] (H-SGNDVIVGNAANNVLKGGAG-NH2) | − (symbol − indicates its absence, following criteria established in Example 2)
CC[C@H](C)[C@H](NC(=O)CNC(=O)[C@H](CCCCN)NC(=O)[C@H](CCC(N)=O)NC(=O)[C@H](Cc1ccccc1)NC(=O)[C@H](CC(=O)O)NC(=O)[C@H](CCCNC(=N)N)NC(=O)[C@@H](NC(=O)[C@H](Cc1c[nH]c2ccccc12)NC(=O)[C@H](CC(=O)O)NC(=O)[C@H](CO)NC(=O)[C@H](C)NC(=O)CNC(=O)[C@@H]1CCCN1C(=O)[C@H](C)N)[C@@H](C)CC)C(=O)N[C@@H](CC(=O)O)C(=O)N[C@@H](CCCCN)C(=O)N[C@H](C(=O)N[C@@H](CC(=O)O)C(=O)N[C@@H](CC(C)C)C(N)=O)[C@@H](C)CC [Peptide O07P104] (H-APGASDWIRDFQKGIDKIDL-NH2) | − (symbol − indicates its absence, following criteria established in Example 2)
C[C@H](NC(=O)[C@H](C)NC(=O)[C@H](Cc1ccc(O)cc1)NC(=O)[C@H](Cc1c[nH]cn1)NC(=O)CNC(=O)CNC(=O)[C@H](CC(N)=O)NC(=O)[C@H](CC(=O)O)NC(=O)CNC(=O)CNC(=O)[C@@H](NC(=O)[C@H](CC(N)=O)NC(=O)[C@@H](NC(=O)[C@H](CCC(=O)O)NC(=O)[C@H](CO)NC(=O)[C@H](Cc1c[nH]c2ccccc12)NC(=O)[C@H](Cc1ccc(O)cc1)NC(=O)[C@@H](N)CO)[C@@H](C)O)[C@@H](C)O)C(=O)N[C@@H](C)C(=O)N1CCC[C@H]1C(N)=O [Peptide D06P91] (H-SYWSETNTGGDNGGHYAAAP-NH2) | − (symbol − indicates its absence, following criteria established in Example 2)
CC[C@H](C)[C@H](N)C(=O)N[C@@H](Cc1ccccc1)C(=O)N[C@H](C(=O)N[C@@H](Cc1ccccc1)C(=O)N[C@@H](CO)C(=O)N[C@@H](C)C(=O)N[C@@H](C)C(=O)N[C@@H](CO)C(=O)N[C@@H](CC(=O)O)C(=O)N[C@@H](CO)C(=O)N[C@@H](C)C(=O)N1CCC[C@H]1C(=O)NCC(=O)N[C@@H](C)C(=O)N[C@@H](CO)C(=O)N[C@@H](CC(=O)O)C(=O)N[C@@H](Cc1c[nH]c2ccccc12)C(=O)N[C@H](C(=O)N[C@@H](CCCNC(=N)N)C(=O)N[C@@H](CC(=O)O)C(N)=O)[C@@H](C)CC)C(C)C [Peptide O07P103] (H-IFVFSAASDSAPGASDWIRD-NH2) | − (symbol − indicates its absence, following criteria established in Example 2)
CC[C@H](C)[C@H](NC(=O)[C@@H](NC(=O)[C@H](CCCCN)NC(=O)[C@H](CCC(N)=O)NC(=O)[C@H](CO)NC(=O)[C@H](CC(N)=O)NC(=O)[C@H](CO)NC(=O)[C@@H](NC(=O)[C@@H](NC(=O)[C@H](CO)NC(=O)[C@H](CC(C)C)NC(=O)[C@H](Cc1ccccc1)NC(=O)[C@H](CC(=O)O)NC(=O)[C@H](CCCNC(=N)N)NC(=O)CNC(=O)[C@@H](N)[C@@H](C)O)[C@@H](C)O)[C@@H](C)O)C(C)C)C(=O)N[C@@H](Cc1ccccc1)C(=O)N[C@@H](C)C(=O)N[C@@H](C)C(=O)N[C@@H](Cc1c[nH]c2ccccc12)C(N)=O [Peptide F07P16] (H-TGRDFLSTTSNSQKVIFAAW-NH2) | − (symbol − indicates its absence, following criteria established in Example 2)
CC[C@H](C)[C@H](NC(=O)[C@H](CO)NC(=O)[C@@H](NC(=O)[C@H](CC(N)=O)NC(=O)CNC(=O)[C@H](CCCCN)NC(=O)[C@H](CC(C)C)NC(=O)CNC(=O)CNC(=O)[C@@H](NC(=O)[C@H](CC(=O)O)NC(=O)[C@H](CO)NC(=O)[C@H](Cc1ccccc1)NC(=O)[C@H](CO)NC(=O)[C@H](CCCCN)NC(=O)[C@H](CCC(=O)O)NC(=O)[C@H](CC(N)=O)NC(=O)[C@@H](N)CC(C)C)C(C)C)C(C)C)C(=O)N[C@@H](C)C(=O)N[C@@H](C)C(N)=O [Peptide A07P47] (H-LNEKSFSDVGGLKGNVSIAA-NH2) | − (symbol − indicates its absence, following criteria established in Example 2)

Same assay, conditions: peptide library screening

Structure (SMILES) | cytotoxic / biological activity in vitro on tumor cells
CC(C)C[C@H](N)C(=O)N[C@@H](Cc1ccc(O)cc1)C(=O)NCC(=O)N[C@@H](C)C(=O)N[C@@H](CC(N)=O)C(=O)N1CCC[C@H]1C(=O)N[C@@H](CO)C(=O)N[C@H](C(=O)N[C@@H](CCCNC(=N)N)C(=O)N[C@H](C(=O)NCC(=O)N[C@@H](CC(=O)O)C(=O)N[C@H](C(=O)N[C@H](C(=O)N[C@@H](Cc1ccc(O)cc1)C(=O)NCC(=O)N[C@@H](Cc1ccccc1)C(=O)N[C@@H](CC(N)=O)C(=O)N[C@@H](CO)C(=O)N[C@@H](CC(N)=O)C(N)=O)C(C)C)[C@@H](C)O)[C@@H](C)O)[C@@H](C)O [Peptide E07P06] (H-LYGANPSTRTGDTVYGFNSN-NH2) | no cytotoxic activity
CC[C@H](C)[C@H](NC(=O)[C@@H](NC(=O)[C@H](CCCCN)NC(=O)[C@H](CCC(N)=O)NC(=O)[C@H](CO)NC(=O)[C@H](CC(N)=O)NC(=O)[C@H](CO)NC(=O)[C@@H](NC(=O)[C@@H](NC(=O)[C@H](CO)NC(=O)[C@H](CC(C)C)NC(=O)[C@H](Cc1ccccc1)NC(=O)[C@H](CC(=O)O)NC(=O)[C@H](CCCNC(=N)N)NC(=O)CNC(=O)[C@@H](N)[C@@H](C)O)[C@@H](C)O)[C@@H](C)O)C(C)C)C(=O)N[C@@H](Cc1ccccc1)C(=O)N[C@@H](C)C(=O)N[C@@H](C)C(=O)N[C@@H](Cc1c[nH]c2ccccc12)C(N)=O [Peptide F07P16] (H-TGRDFLSTTSNSQKVIFAAW-NH2) | no cytotoxic activity; also recorded: inactive
